Results published in patent US11685732B2, “MYST family histone acetyltransferase inhibitors” (Epizyme, Inc., priority 2017, dated 2023).

What was measured:
[1] = target: KAT-6A (Homo sapiens (Human), UniProt Q92794); assay: KAT-6A biochemical inhibition assay (SAMDI mass spectrometry)
Procedure, shortened: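 IC50 values came from SAMDI time-of-flight mass spectrometry after formic acid quench (0.5% final). Acetylation ran 90 min at 25 °C with 1 μM acetyl coenzyme A and 1 μM peptide substrate, following compound pre-incubation with 12.5 nM KAT-6A in Tris buffer pH 8.0 containing DTT, 2% DMSO final.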

[2] = target: KAT-7 (Homo sapiens (Human), UniProt O95251); assay: KAT-7 biochemical inhibition assay (SAMDI mass spectrometry)
Procedure, shortened: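 Read-out was SAMDI time-of-flight MS of formic acid-quenched reactions (0.5% final). Compound dilutions (2% DMSO final) were pre-incubated with 6 nM KAT-7 in 50 mM Tris pH 8.0 with 1 mM DTT, then given 1 μM peptide substrate and 2 μM acetyl-CoA for 120 min at 25 °C. IC50 values were derived.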

[3] = target: KAT-5 (Homo sapiens (Human), UniProt Q92993); assay: KAT-5 biochemical inhibition assay (SAMDI mass spectrometry)
Procedure, shortened: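 Acetylation of 1 μM peptide by 9 nM enzyme with 0.5 μM acetyl-CoA (final) was run 90 min at 25° C in Tris pH 8.0 buffer with DTT, after compound preincubation at 2% DMSO. Formic acid stopped the reaction, and product was quantified by SAMDI mass spectrometry to derive IC50.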

[4] = target: KAT-8 (Homo sapiens (Human), UniProt Q9H7Z6); assay: KAT-8 biochemical inhibition assay (SAMDI mass spectrometry)
Procedure, shortened: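 Acetylation of 1 μM peptide substrate with 5 μM acetyl-CoA by 12.5 nM enzyme, compound pre-incubated, 2% DMSO, Tris pH 8.0 buffer with DTT, 25 °C for 90 min. Quench with 0.5% formic acid; product read by SAMDI mass spectrometry to give IC50.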

Chain of KAT-5 (Q92993 other isoform, or with tags, fused parts or gaps): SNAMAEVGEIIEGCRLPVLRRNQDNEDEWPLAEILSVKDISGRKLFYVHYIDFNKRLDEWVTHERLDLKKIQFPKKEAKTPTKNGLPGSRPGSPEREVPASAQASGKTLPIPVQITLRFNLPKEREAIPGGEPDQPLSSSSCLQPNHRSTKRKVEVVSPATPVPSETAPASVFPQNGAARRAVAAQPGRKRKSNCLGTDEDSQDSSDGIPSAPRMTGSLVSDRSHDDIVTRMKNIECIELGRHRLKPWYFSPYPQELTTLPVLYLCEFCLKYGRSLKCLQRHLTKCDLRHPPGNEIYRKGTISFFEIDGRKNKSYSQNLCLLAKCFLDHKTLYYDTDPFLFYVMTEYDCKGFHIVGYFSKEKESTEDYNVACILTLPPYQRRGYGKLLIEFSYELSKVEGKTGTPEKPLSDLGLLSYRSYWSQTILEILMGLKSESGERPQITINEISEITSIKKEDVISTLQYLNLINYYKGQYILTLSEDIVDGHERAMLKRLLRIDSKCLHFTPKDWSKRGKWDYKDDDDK
Chain of KAT-7 (O95251 other isoform, or with tags, fused parts or gaps): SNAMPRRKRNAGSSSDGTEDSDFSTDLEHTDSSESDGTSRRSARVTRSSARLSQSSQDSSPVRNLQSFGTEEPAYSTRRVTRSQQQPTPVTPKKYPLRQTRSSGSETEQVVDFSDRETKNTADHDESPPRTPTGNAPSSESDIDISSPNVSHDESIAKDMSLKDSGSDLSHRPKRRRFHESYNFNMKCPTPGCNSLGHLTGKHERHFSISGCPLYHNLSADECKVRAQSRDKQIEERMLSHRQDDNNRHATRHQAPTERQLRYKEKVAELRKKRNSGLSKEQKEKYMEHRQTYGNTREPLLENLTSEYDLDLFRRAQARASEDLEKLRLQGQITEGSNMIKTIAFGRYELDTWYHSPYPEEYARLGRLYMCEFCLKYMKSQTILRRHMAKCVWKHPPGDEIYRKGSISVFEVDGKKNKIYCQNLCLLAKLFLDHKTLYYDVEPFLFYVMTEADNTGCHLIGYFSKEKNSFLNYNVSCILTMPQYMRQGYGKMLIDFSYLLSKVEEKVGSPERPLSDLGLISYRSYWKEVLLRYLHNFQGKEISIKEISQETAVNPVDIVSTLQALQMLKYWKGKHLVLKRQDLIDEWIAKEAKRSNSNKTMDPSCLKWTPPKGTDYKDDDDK
Chain of KAT-8 (Q9H7Z6 other isoform, or with tags, fused parts or gaps): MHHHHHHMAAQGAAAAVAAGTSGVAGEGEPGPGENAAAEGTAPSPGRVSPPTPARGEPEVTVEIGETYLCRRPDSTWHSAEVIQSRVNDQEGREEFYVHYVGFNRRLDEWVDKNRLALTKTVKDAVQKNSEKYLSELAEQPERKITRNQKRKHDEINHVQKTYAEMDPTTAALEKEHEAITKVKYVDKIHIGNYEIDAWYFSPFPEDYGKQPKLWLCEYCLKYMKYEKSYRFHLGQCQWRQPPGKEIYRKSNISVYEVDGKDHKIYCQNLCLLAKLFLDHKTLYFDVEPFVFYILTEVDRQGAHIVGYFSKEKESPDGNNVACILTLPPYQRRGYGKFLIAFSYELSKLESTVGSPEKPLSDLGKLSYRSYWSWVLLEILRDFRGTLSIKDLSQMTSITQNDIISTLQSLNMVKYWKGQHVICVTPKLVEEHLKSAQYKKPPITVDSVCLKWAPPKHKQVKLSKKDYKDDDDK
Chain of KAT-6A (Q92794 other isoform, or with tags, fused parts or gaps): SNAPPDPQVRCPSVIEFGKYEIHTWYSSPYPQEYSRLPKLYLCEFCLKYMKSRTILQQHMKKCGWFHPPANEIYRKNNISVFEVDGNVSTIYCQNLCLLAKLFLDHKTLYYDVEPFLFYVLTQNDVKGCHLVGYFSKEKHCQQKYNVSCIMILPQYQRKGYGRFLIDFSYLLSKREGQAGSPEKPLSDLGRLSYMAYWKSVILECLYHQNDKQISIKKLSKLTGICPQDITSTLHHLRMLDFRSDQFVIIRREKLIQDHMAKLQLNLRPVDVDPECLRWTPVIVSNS

Compound	IC50 [1] [µM]	IC50 [2] [µM]	IC50 [3] [µM]	IC50 [4] [µM]
Cc1nc(-c2cc(Cl)c(F)c(C(=O)NNS(=O)(=O)CC3CCOCC3)c2)cs1 [Compound I-70]	10 to 50	10 to 50	10 to 50	10 to 50
CCn1cnc(-c2cc(C)c(F)c(C(=O)NNS(=O)(=O)C3CCCCC3)c2)c1 [Compound I-126]	10 to 50	< 10	< 10	> 100
Cc1nc(-c2cc(Cl)c(F)c(C(=O)NNS(=O)(=O)C3CCOCC3)c2)cn1C [Compound I-37]	10 to 50	10 to 50	50 to 100	> 100
CC(C)C(=O)N[C@H]1CC[C@H](CS(=O)(=O)NNC(=O)c2cc(-c3cn(C)cn3)cc(Cl)c2F)CC1 [Compound I-201]	< 10	< 10	< 10	10 to 50
Cc1cc(-c2cn(C)c(Cl)n2)cc(C(=O)NNS(=O)(=O)CC2CCCCC2)c1C [Compound I-147]	> 100	> 100	> 100	> 100
O=C(NNS(=O)(=O)CC1CCCCC1)c1cc(-n2cccn2)cc(Cl)c1F [Compound I-34]	< 10	10 to 50	< 10	> 100
Cn1cnc(-c2cc(Cl)c(F)c(C(=O)NNS(=O)(=O)CC3CCC(NC(=O)OC(C)(C)C)C3)c2)c1 (stereo not shown) [Compound I-285]	< 10	< 10	< 10	10 to 50
CC(C)C(=O)N[C@H]1CC[C@@H](CS(=O)(=O)NNC(=O)c2cc(-c3cn(C)cn3)cc(Cl)c2F)CC1 [Compound I-222]	10 to 50	< 10	< 10	10 to 50
Cn1cnc(-c2cc(Cl)c(F)c(C(=O)NNS(=O)(=O)C[C@H]3CC[C@H](NC(=O)c4ccccc4)CC3)c2)c1 [Compound I-240]	< 10	< 10	< 10	10 to 50
Cn1cnc(-c2cc(Cl)c(F)c(C(=O)NNS(=O)(=O)CC3CCCC(NC(=O)C4CCC4)C3)c2)c1 (stereo not shown) [Compound I-218]	< 10	< 10	< 10	10 to 50
Cn1cnc(-c2cc(Cl)c(F)c(C(=O)NNS(=O)(=O)C3CC3)c2)c1 [Compound I-19]	> 100	10 to 50	> 100	> 100

The remaining lines, values ahead:

IC50 [1] [µM]	IC50 [2] [µM]	IC50 [3] [µM]	IC50 [4] [µM]	Compound
< 10	< 10	< 10	10 to 50	Cn1cnc(-c2cc(Cl)c(F)c(C(=O)NNS(=O)(=O)C[C@H]3CCOC3)c2)c1 [Compound I-371]
< 10	< 10	< 10	10 to 50	COc1ccccc1S(=O)(=O)NNC(=O)c1cc(-c2cn(C)cn2)cc(Cl)c1F [Compound I-321]
< 10	< 10	< 10	10 to 50	CC(C)C(=O)NC1CCCC(CS(=O)(=O)NNC(=O)c2cc(-c3cn(C)cn3)cc(Cl)c2F)C1 (stereo not shown) [Compound I-206]
< 10	10 to 50	< 10	10 to 50	Cc1ncc(-c2cc(Cl)c(F)c(C(=O)NNS(=O)(=O)CC3CCOCC3)c2)[nH]1 [Compound I-81]
< 10	< 10	< 10	10 to 50	COc1ccc(CNC(=O)N2CC(CS(=O)(=O)NNC(=O)c3cc(-c4cn(C)cn4)cc(Cl)c3F)C2)cc1 [Compound I-203]
< 10	< 10	< 10	10 to 50	Cn1cnc(-c2cc(Cl)c(F)c(C(=O)NNS(=O)(=O)C[C@H]3C[C@@H](NC(N)=O)C3)c2)c1 [Compound I-235]
< 10	< 10	< 10	10 to 50	Cn1cnc(-c2cc(Cl)c(F)c(C(=O)NNS(=O)(=O)c3c(F)cccc3F)c2)c1 [Compound I-378]
< 10	< 10	< 10	10 to 50	CC(C)NC(=O)N1CCC(CS(=O)(=O)NNC(=O)c2cc(-c3cn(C)cn3)cc(Cl)c2F)C1 (stereo not shown) [Compound I-198]
